Tested on: patients with inadequately managed, severe chronic low back pain with or without a neuropathic pain component
Assay: Short Form 36 Health Survey (SF-36) scores, same trial
Format: in vivo, human patients
Settings: Baseline to Week 12, all P<0.05
Text: This was a multicenter, multinational, open-label, effectiveness phase IIIb trial to evaluate effectiveness and safety of tapentadol prolonged release treatment in patients with inadequately managed, severe chronic low back pain with or without a neuropathic pain component. Patients taking WHO Step II analgesics discontinued those analgesics before starting study medication; patients taking Step I analgesics and/or centrally acting co-analgesics continued on the same dose. […] All patients received tapentadol prolonged release (50-250 mg bid) for up to 12 weeks (5-week titration period and a 7-week maintenance period). Tapentadol immediate release (IR) 50 mg (twice a day, hours apart) was permitted (combined total daily dose of tapentadol prolonged release and tapentadol IR, 500 mg/day). The primary efficacy endpoint was the change from Baseline to Week 6 (when tapentadol prolonged release doses were stable) in average pain intensity on the 11-point NRS-3 using the last observation carried forward (LOCF) for imputing missing scores. […]
All subjects completed Short Form-36 (SF-36) and EuroQol-5 Dimension (EQ-5D) questionnaires and the Hospital Anxiety and Depression Scale (HADS). […] Adverse events were recorded throughout the trial.

## CC[C@@H](c1cccc(O)c1)[C@@H](C)CN(C)C [tapentadol, (−)-(1R,2R)-3-(3-dimethylamino-1-ethyl-2-methyl-propyl)-phenol]
Patients painDETECT negative or unclear/positive
  SF-36 physical functioning, bodily pain, general health, role-emotional and physical component summary scores: improved
Patients painDETECT unclear/positive
  SF-36 role-physical, vitality, social functioning, mental health, reported health transition and mental component summary scores: also improved
